According to publication PMC11324046, “Second-generation piperazine derivatives as promising radiation countermeasures” (RSC Medicinal Chemistry, 2024):

Experiment: Annexin V/PI flow cytometry viability of irradiated MOLT-4 cells
Type: cell-based, human
Details: human, MOLT-4 cells, not irradiated, no irradiation, 24 h, read-out: Viable (annexin V/PI negative) MOLT-4 cells, compound alone; for viability at 24 h, 200 µM: representative histogram Fig. 6A
Experimental: Consequently, we investigated whether the pre-application of these substances can augment the survival of MOLT-4 cells after irradiation exposure. The radioprotective investigation utilized a leukemia MOLT-4 cell model of hematopoietic origin with flow cytometric quantification of cell viability via annexin V/propidium iodide staining.
In the following step, at 24 h after irradiation, MOLT-4 cell viability and cell death were determined by flow cytometry using an Alexa Fluor® 488 annexin V/Dead Cell Apoptosis kit (Life Technologies, Grand Island, NY, USA) following the manufacturer's instructions. The Alexa Fluor®488 annexin V/Dead Cell Apoptosis kit employs the property of Alexa Fluor®488 conjugated to annexin V to bind to phosphatidylserine in the presence of Ca^2+; and the ability of propidium iodide to enter cells with damaged cell membranes and bind to DNA. For each sample, a minimum of 20 000 events were acquired using a CytoFLEX LX flow cytometer (Beckman Coulter, Miami, FL, USA). List mode data were analyzed using Kaluza Analysis 2.1 software (Beckman Coulter, Miami, FL, USA).

[1] = 100 μM, representative histogram Fig. 5A

In the case of `NCCCNCCS` [WR1065, reference compound], the viability at 2 h, 100 µM [1] is reported as 64% and the viability at 24 h, 200 µM is reported as 18%.

Work on `NCCCNCCSP(=O)(O)O` [WR2721, amifostine, reference compound] yielded a viability at 24 h, 100 µM [1] of 83% and a viability at 24 h, 200 µM of 83%.
